Results published in patent US20110230431A1, “FOSFOMYCIN/TOBRAMYCIN COMBINATIONS FOR THE TREATMENT AND PREVENTION OF OPHTHALMIC, OTOLOGICAL AND DERMATOLOGICAL INFECTIONS” (Gilead Sciences, Inc., priority 2008, published 2011).
Where two headings read alike, the source gives them in different places.

What was measured:
[1] = test system: Cell Wall Synthesis in P. aeruginosa ATCC 27853; assay: Macromolecular biosynthesis: 3H-N-acetyl-D-glucosamine incorporation; type: cell-based, Pseudomonas aeruginosa; details: at 2 h relative to no-drug control, single experiment
Method: (§1) Picataway, N.J.) and N-acetyl-D-Glucosamine (^3H-NAG) (GE Healthcare Bio-Sciences), respectively (Baum, E Z, Antimicrob Agents Chernother 2001; 45 (11): 3182-3188). A single colony of P. aeruginosa ATCC 27853 was inoculated into 10 mL of CAMHB and incubated for 16 h, at 37° C., 200 rpm in a shaking water bath. […] At various time points, 100 μl aliquots (triplicate) of culture were removed and added to 100 μl of 20% TCA (VWR) in 96-well flat bottom trays (VWR). Plates were incubated on crushed ice for 60 min to precipitate the incorporated ^3H-precursors. Samples were harvested onto glass fibre filters (GFC) (PerkinElmer; Waltham, Mass.). Filters were washed two times with 35 mL of normal saline to remove unincorporated isotope followed by one wash with 35 mL of 90% ETOH (VWR). Filters were dried under a lamp for 1 h to reduce remaining moisture and then sealed in bags containing 5 mL of scintillation cocktail (Betaplate Scint; PerkinElmer). Counts per minute (CPM) were determined using a Wallac MicroBeta Trilux (PerkinElmer). Mean CPM±standard deviation (SD) were determined for each treatment group. Background counts consisting of a media-only sample were subtracted from the no-drug and antibiotic treatment groups. The percent inhibition of incorporation was determined relative to the no-drug controls. The activities of the three drugs were compared by calculating the time to 50% inhibition (T1/2), and statistical differences at each time point were evaluated by the Analysis of Variance (ANOVA; GraphPad Prisma software package 3.03; GraphPad Software, Inc., San Diego, Calif.). Each curve represents 4 replicate experiments, each time point performed in triplicate.

E. coli [2] = assay: MIC by agar plate dilution method (CLSI); type: cell-based, Escherichia coli
Description: (§2) P. aeruginosa strains isolated from patients with cystic fibrosis (CF) were obtained from Children's Hospital and Regional Medical Center (Seattle, Wash.). Clinical isolates of Escherichia coli and Staphylococcus aureus were obtained from The Jones Group Laboratories (JMI; North Liberty, Iowa) and The Clinical Microbiology Institute (CMI; Wilsonville, Oreg.). P. aeruginosa 27853, S. aureus 29213, and E. coli 25922 served as quality control strains^1 and were obtained from The America Type Culture Collection (ATCC; Manassas, Va.). P. aeruginosa ATCC 27853, a fosfomycin and tobramycin susceptible strain, was used in macromolecular biosynthesis and tobramycin uptake experiments. Stock cultures were maintained at −80° C. in Cation-Adjusted Mueller-Hinton Broth (CAMHB) (Remel; Lenexa, Kans.) supplemented with 20% glycerol (VWR: West Chester, Pa.). Cultures for routine use were grown on tryptic soy agar plates+5% sheeps blood (PML Microbiologicals Inc.; Wilsonville, Oreg.) and stored at 4° C.
(§3) MICs were determined by the agar plate dilution method according to CLSI guidelines (National Committee for Clinical Laboratory Standards. M7-A6. 6th ed. Villanova (Pa.): NCCLS, 2003; M100-S14. Villanova (Pa.): NCCLS, 2004).

P. aeruginosa [3] = type: cell-based, Pseudomonas aeruginosa
Method: (§4) Development of resistance after a single exposure to antibiotic was determined for both clinical and reference isolates of P. aeruginosa, S. aureus, and E. coli. Late Log-phase cultures were centrifuged at 1,400×g at room temperature for 20 min and the cell pellets resuspended in CAMHB. […] The culture plates were incubated at 37° C. for 48 h and the number of colonies on each plate was enumerated manually. The spontaneous mutation frequency (SMF) resulting in antibiotic resistance was calculated by dividing the number of bacteria growing at the defined antibiotic concentration by the number of bacteria in the inoculum (Martinex, J L, Antimicrob Agents Chemother 2000; 44 (1):1771-1777).

P. aeruginosa [4] = assay: MIC by agar plate dilution method (CLSI); type: cell-based, Pseudomonas aeruginosa
Description: as §2, §3

E. coli [5] = type: cell-based, Escherichia coli
Method: as §4

[6] = test system: Protein Synthesis in P. aeruginosa ATCC 27853; assay: Macromolecular biosynthesis: 3H-amino acid incorporation; type: cell-based, Pseudomonas aeruginosa; details: for % Inhibition Protein: at 2 h relative to no-drug control, single experiment
Method: as §1

P. aeruginosa ATCC 27853 = assay: Time-kill experiments in CAMHB with 2% mucin; type: cell-based, Pseudomonas aeruginosa
Method: Time-kill experiments were performed according to a modified CLSI method (National Committee for Clinical Laboratory Standards. M-26A. Villanova (Pa.): NCCLS, 1999). […] Bacterial cultures and antibiotic(s) were incubated at 37° C. in a shaking water bath (200 rpm) and killing activity assessed at 0, 1, 2, 4, 6 and 24 h. Antibiotics that reduced the original inoculum by ≧3-Log10 were considered bactericidal. Antibiotics that reduced the original inoculum by ≦2-Log10 were considered bacteriostatic.

## tobramycin sulfate
[1]; 0.8 μg/mL
  % Inhibition Cell Wall: 4%
[1]; 1.6 μg/mL
  % Inhibition Cell Wall: 10%
[1]; 3.2 μg/mL
  % Inhibition Cell Wall: 36%
E. coli [2]; E. coli ATCC 25922
  MIC: 0.5 µg/mL
E. coli [2]; E. coli C032
  MIC: 0.5 µg/mL
E. coli [2]; E. coli C036
  MIC: 0.5 µg/mL
E. coli [2]; E. coli C037
  MIC: 4 µg/mL
E. coli [2]; E. coli C294
  MIC: 0.5 µg/mL
P. aeruginosa [3]; P. aeruginosa ATCC 27853, 4× MIC
  Frequency of Resistance 4× MIC: 3.0 × 10^−5
P. aeruginosa [3]; P. aeruginosa ATCC 27853, 8× MIC
  Frequency of Resistance 8× MIC: 2.2 × 10^−7
P. aeruginosa [3]; P. aeruginosa ATCC 27853, 16× MIC
  Frequency of Resistance 16× MIC: 1.6 × 10^−8
P. aeruginosa [3]; P. aeruginosa C002, 4× MIC
  Frequency of Resistance 4× MIC: 1.1 × 10^−5
P. aeruginosa [3]; P. aeruginosa C002, 8× MIC
  Frequency of Resistance 8× MIC: 1.1 × 10^−7
P. aeruginosa [3]; P. aeruginosa C002, 16× MIC
  Frequency of Resistance 16× MIC: 4.4 × 10^−8
P. aeruginosa [3]; P. aeruginosa C003, 4× MIC
  Frequency of Resistance 4× MIC: 4.2 × 10^−5
P. aeruginosa [3]; P. aeruginosa C003, 8× MIC
  Frequency of Resistance 8× MIC: 1.8 × 10^−7
P. aeruginosa [3]; P. aeruginosa C003, 16× MIC
  Frequency of Resistance 16× MIC: 7.2 × 10^−8
P. aeruginosa [3]; P. aeruginosa C013, 4× MIC
  Frequency of Resistance 4× MIC: 1.4 × 10^−6
P. aeruginosa [3]; P. aeruginosa C013, 8× MIC
  Frequency of Resistance 8× MIC: 3.7 × 10^−6
P. aeruginosa [3]; P. aeruginosa C013, 16× MIC
  Frequency of Resistance 16× MIC: 8.2 × 10^−7
P. aeruginosa [3]; P. aeruginosa C014, 4× MIC
  Frequency of Resistance 4× MIC: 1.3 × 10^−6
P. aeruginosa [3]; P. aeruginosa C014, 8× MIC
  Frequency of Resistance 8× MIC: 1.1 × 10^−7
P. aeruginosa [3]; P. aeruginosa C014, 16× MIC
  Frequency of Resistance 16× MIC: 7.9 × 10^−7
P. aeruginosa [4]; P. aeruginosa ATCC 27853
  MIC: 0.5 µg/mL
P. aeruginosa [4]; P. aeruginosa C002
  MIC: 0.5 µg/mL
P. aeruginosa [4]; P. aeruginosa C003
  MIC: 0.5 µg/mL
P. aeruginosa [4]; P. aeruginosa C013
  MIC: 0.5 µg/mL
P. aeruginosa [4]; P. aeruginosa C014
  MIC: 0.5 µg/mL
E. coli [5]; E. coli ATCC 25922, 4× MIC
  Frequency of Resistance 4× MIC: 2.5 × 10^−6
E. coli [5]; E. coli ATCC 25922, 8× MIC
  Frequency of Resistance 8× MIC: 1.5 × 10^−7
E. coli [5]; E. coli ATCC 25922, 16× MIC
  Frequency of Resistance 16× MIC: 8.7 × 10^−8
E. coli [5]; E. coli C032, 4× MIC
  Frequency of Resistance 4× MIC: 1.3 × 10^−6
E. coli [5]; E. coli C032, 8× MIC
  Frequency of Resistance 8× MIC: 5.5 × 10^−6
E. coli [5]; E. coli C032, 16× MIC
  Frequency of Resistance 16× MIC: 6.2 × 10^−7
E. coli [5]; E. coli C036, 4× MIC
  Frequency of Resistance 4× MIC: 4.4 × 10^−6
E. coli [5]; E. coli C036, 8× MIC
  Frequency of Resistance 8× MIC: 4.7 × 10^−7
E. coli [5]; E. coli C036, 16× MIC
  Frequency of Resistance 16× MIC: 1.9 × 10^−9
E. coli [5]; E. coli C037, 4× MIC
  Frequency of Resistance 4× MIC: 1.0 × 10^−6
E. coli [5]; E. coli C037, 8× MIC
  Frequency of Resistance 8× MIC: 4.4 × 10^−6
E. coli [5]; E. coli C037, 16× MIC
  Frequency of Resistance 16× MIC: 1.1 × 10^−7
E. coli [5]; E. coli C294, 4× MIC
  Frequency of Resistance 4× MIC: 6.6 × 10^−5
E. coli [5]; E. coli C294, 8× MIC
  Frequency of Resistance 8× MIC: 1.3 × 10^−6
E. coli [5]; E. coli C294, 16× MIC
  Frequency of Resistance 16× MIC: <7.2 × 10^−9
[6]; 0.8 μg/mL
  % Inhibition Protein: 2%
[6]; 1.6 μg/mL (FIG. 5)
  time to 50% inhibition (T1/2) of protein synthesis: > 3 h
[6]; 1.6 μg/mL
  % Inhibition Protein: 6%
[6]; 3.2 μg/mL
  % Inhibition Protein: 42%
P. aeruginosa ATCC 27853; 24 h, FT4:1 16 μg/mL, fosfomycin 12.8 μg/mL, tobramycin 3.2 μg/mL, mucin, FIG. 4
  killing activity at 24 h: re-growth of the bacterial culture
P. aeruginosa ATCC 27853; FT4:1 at 4×MIC (16 μg/mL), component weights fosfomycin 12.8 μg/mL, tobramycin 3.2 μg/mL, mucin, FIG. 4
  killing activity: bacteriostatic killing
P. aeruginosa ATCC 27853; increase from 2 μg/mL to 4 μg/mL (2-fold), FIG. 2
  bacterial killing on increasing the concentration: > 4 Log10
P. aeruginosa ATCC 27853; multiples of the MIC, FIG. 1-3
  killing activity (bactericidal ≧3-Log10, bacteriostatic ≦2-Log10): rapidly bactericidal
P. aeruginosa ATCC 27853; tobramycin 3.2 μg/mL in the presence of 12.8 μg/mL fosfomycin, FIG. 4
  enhancement of bacterial killing in the presence of fosfomycin: 3 Log10 CFU/mL
